The subject of one experiment is MSCs. Kind of experiment: Adhesion of MSCs to BSA-coupled peptide microarrays (MSA technology). It is filed as cell-based, human. Particulars: peptide coupled to bovine serum albumin, incubation two hours, FIG. 2. The protocol:
(§1) The adhesion of cells to peptides was also measured using the MSA™ technology (see Kuschel et al., 2006) as above in example 1. Instead of the extracellular matrix proteins, however, peptides coupled to bovine serum albumin were printed in the form of microarrays (8×8 microspots) onto the nitrocellulose layer, and then the remaining surface was sealed. For incubation with cells, small silicone chambers were placed on the coated slides, and incubated with MSCs or fibroblasts. After incubation for two hours, the non-adherent cells were washed away.
(§2) Adherent cells were made visible on the white nitrocellulose film by staining with Coomassie Blue and were evaluated in a motorized photomicroscope: the number of blue cells or the color intensity per spot is measured and transferred to tables for evaluation.
(§3) Evaluation of these arrays using the semi-automatic photomicroscope gave the relative binding strength on PLL (standardized to 100%, positive control) and BSA (standardized to 0%, negative control) for the peptides tested in each case.

A further experiment has as its system fibroblasts. In words: Adhesion of fibroblasts to BSA-coupled peptide microarrays (MSA technology). It is filed as cell-based, human. To be noted: peptide coupled to bovine serum albumin, incubation two hours, FIG. 3. The protocol: as §1, §2, §3
Experiment [1] has as its system human mesenchymal stem cells (MSC). Kind of experiment: Adherence of MSCs on immobilized matrix proteins (Multiple Substrate Array chip). Particulars: immobilized protein on MSA chip, 20 000 cells/test chamber, FIG. 1. It is filed as cell-based. How it is done: The adherence of human mesenchymal stem cells (MSC, samples 5 and 6 in FIG. 1) and human fibroblasts (samples 1 to 4 in FIG. 1) on matrix proteins was investigated in a comparative test. The investigation was carried out using a chip (Multiple Substrate Array (MSA®)), on which the proteins were immobilized. The procedure used as such was as described in Kuschel et al., “Cell adhesion profiling using extracellular matrix protein microarrays”, Biotechniques 40: 523-531 (2006).
MSCs were enriched from bone marrow by density gradient centrifugation, cultivated as an adherent population in MSC-expansion medium, and harvested. The differentiation potential was tested on an aliquot and adipogenic, chondrogenic and osteogenic differentiation was confirmed. Therefore the cells fulfill the physiological requirements for MSCs (M. Dominici et al. 2006, Cytotherapy, 8: 315 ff). […]
Fibroblasts were isolated from the synovial membrane and expanded as described (Aicher et al. 1994 J. Immunol. 152: 5940 ff). The cells were harvested, washed, counted and in each case 20 000/test chamber were investigated using MSA™ chip technology for adherence to proteins. […] Cells adhering to the proteins were fixed chemically and their nuclei were marked with dye, for quantitation of the number of adherent cells per microspot of protein. […]

Square brackets hold non-standard residues; d marks the D form. Ends that are not written are not given here. Orn = NCCC[C@H](N)C(=O)O; DOA = not defined here; Doa = not defined here

Consider “LRE-Doa-A-OH (LRE[Doa]A-OH; reading uncertain; also: printed as LRE-Doa-A-OH; listed as Homo sapiens) [No. 9-COOH]”, for which the “adhesion of MSCs to the peptide” value in the experiment with MSCs is given as “make the adhesion of MSCs possible”. Besides, in the experiment with fibroblasts, the “adhesion of fibroblasts to the peptide” value is recorded as “not that of fibroblasts”.

On to “WTPPRAQITGYRLTVGLTRR-OH (listed as Homo sapiens) [No. 30]”, for which, in the experiment with MSCs, the “adhesion of MSCs to the peptide” value was “make the adhesion of MSCs possible”. Also, in the experiment on fibroblasts, the “adhesion of fibroblasts to the peptide” value is recorded as “not that of fibroblasts”.

Turning to “LRE-OH (Leu-Arg-Glu-OH; listed as Homo sapiens) [No. 9]”, the “adhesion of MSCs to the peptide” value in the experiment on MSCs is given as “make the adhesion of MSCs possible”. Besides, the “adhesion of fibroblasts to the peptide” value in the experiment with fibroblasts is listed as “not that of fibroblasts”.

In the case of “GF-Orn-GER-OH (GF[Orn]GER-OH; N-terminus assumed; SMILES N=C(N)NCCC[C@H](NC(=O)[C@H](CCC(=O)O)NC(=O)CNC(=O)[C@H](CCCN)NC(=O)[C@H](Cc1ccccc1)NC(=O)CN)C(=O)O) [No. 1]”, the “adhesion of MSCs to the peptide” value with MSCs is reported as “make the adhesion of MSCs possible”. Also, in the experiment with fibroblasts, the “adhesion of fibroblasts to the peptide” value is reported as “not that of fibroblasts”.

With “KREDVY-OH (listed as Homo sapiens) [No. 21]”, the “adhesion of MSCs to the peptide” value in the experiment with MSCs is “make the adhesion of MSCs possible”. Also, the “adhesion of fibroblasts to the peptide” value in the experiment on fibroblasts is “not that of fibroblasts”.

Regarding “LAIKNDNLVYVY-OH (listed as Homo sapiens) [No. 15]”, the “adhesion of MSCs to the peptide” value with MSCs is given as “make the adhesion of MSCs possible”. Further, the “adhesion of fibroblasts to the peptide” value in the experiment with fibroblasts is reported as “not that of fibroblasts”.

For “KRSR-DOA-A-OH (KRSR[DOA]A-OH; reading uncertain; also: printed as KRSR-DOA-A-OH; listed as Homo sapiens) [No. 37b]”, the “adhesion of MSCs to the peptide” value in the experiment on MSCs is reported as “make the adhesion of MSCs possible”. For the same substance, the “adhesion of fibroblasts to the peptide” value in the experiment with fibroblasts was “not that of fibroblasts”.

Consider “GEFYFDLRLKGDK-OH (listed as Homo sapiens) [No. 5]”, for which, in the experiment on MSCs, the “adhesion of MSCs to the peptide” value is “make the adhesion of MSCs possible”. In the experiment on fibroblasts, the “adhesion of fibroblasts to the peptide” value is reported as “not that of fibroblasts”.

For the substance “DVISLYNFKHIY-OH (listed as Homo sapiens) [No. 16]”, the “adhesion of MSCs to the peptide” value with MSCs is “make the adhesion of MSCs possible”. The “adhesion of fibroblasts to the peptide” value in the experiment on fibroblasts is recorded as “not that of fibroblasts”.

Turning to “YIIR-OH (listed as Homo sapiens) [No. 34]”, the “adhesion of MSCs to the peptide” value in the experiment with MSCs is recorded as “make the adhesion of MSCs possible”. The “adhesion of fibroblasts to the peptide” value with fibroblasts was “not that of fibroblasts”.

Regarding “EILDV-COOH (EILDV-OH; listed as Homo sapiens) [No. 22-COOH]”, in the experiment with MSCs, the “adhesion of MSCs to the peptide” value is listed as “make the adhesion of MSCs possible”. In the experiment on fibroblasts, the “adhesion of fibroblasts to the peptide” value is “not that of fibroblasts”.

As to “YIIR-DOA-A-OH (YIIR[DOA]A-OH; reading uncertain; also: printed as YIIR-DOA-A-OH; listed as Homo sapiens) [No. 34-COOH]”, the “adhesion of MSCs to the peptide” value in the experiment on MSCs is listed as “make the adhesion of MSCs possible”. Besides, the “adhesion of fibroblasts to the peptide” value with fibroblasts is “not that of fibroblasts”.

Consider “tenascin-C: oligomeric glycoprotein of the extracellular matrix, immobilized on the chip”, for which the “binding of the MSCs to the protein compared with binding of fibroblasts” value in experiment [1] is recorded as “firmer”.

With “GRGDSO-OH (GRGDS[Orn]-OH; N-terminus assumed; SMILES N=C(N)NCCC[C@H](NC(=O)CN)C(=O)NCC(=O)N[C@@H](CC(=O)O)C(=O)N[C@@H](CO)C(=O)N[C@@H](CCCN)C(=O)O; listed as Homo sapiens) [No. 11]”, the “adhesion of MSCs to the peptide” value with MSCs is on record as “make the adhesion of MSCs possible”. Further, the “adhesion of fibroblasts to the peptide” value with fibroblasts is recorded as “not that of fibroblasts”.

As to “DRVPHSRNSIT-OH (listed as Homo sapiens) [No. 20]”, the “adhesion of MSCs to the peptide” value in the experiment on MSCs is given as “make the adhesion of MSCs possible”. The “adhesion of fibroblasts to the peptide” value with fibroblasts is on record as “not that of fibroblasts”.

In the case of “KREDVY-COOH (KREDVY-OH; listed as Homo sapiens) [No. 21-COOH]”, the “adhesion of MSCs to the peptide” value in the experiment on MSCs is on record as “make the adhesion of MSCs possible”. The “adhesion of fibroblasts to the peptide” value in the experiment with fibroblasts is given as “not that of fibroblasts”.

On to “EILDV-OH (listed as Homo sapiens) [No. 22]”, for which the “adhesion of MSCs to the peptide” value in the experiment with MSCs is reported as “make the adhesion of MSCs possible”. Further, the “adhesion of fibroblasts to the peptide” value in the experiment on fibroblasts is on record as “not that of fibroblasts”.

Source of the values: patent US20130156819A1, “ISOLATION OF MESENCHYMAL STEM CELLS” (Baden-Württemberg Stiftung gGmbH, priority 2010, published 2013).
